Activity calls are given as the source filed them. No cut-off for these calls is given here.
Tests used:
[1] = test system: Mus musculus; assay: Anticonvulsant activity in albino CF1 mouse assessed as protection against subcutaneous metrazole-induced seizures at 30 mg/kg, ip after 4 hrs; type: functional, organism-based; design: dose 30 mg/kg
[2] = test system: Mus musculus; assay: Neurotoxicity in albino CF1 mouse assessed as minimal motor impairment at 30 mg/kg, ip after 0.5 hrs by rotarod test; type: toxicity, organism-based; design: dose 30 mg/kg, route intraperitoneal; conditions: in vivo
[3] = test system: Mus musculus; assay: Neurotoxicity in albino CF1 mouse assessed as minimal motor impairment at 30 to 300 mg/kg, ip after 0.5 hrs by rotarod test; conditions: in vivo
[4] = test system: Mus musculus; assay: Anticonvulsant activity against maximal electroshock-induced seizures in ip dosed albino CF1 mouse assessed as minimum effective dose after 0.5 hrs; type: functional; conditions: read-out: MED
[5] = test system: Mus musculus; assay: Neurotoxicity in ip dosed albino CF1 mouse assessed as minimum dose required to cause toxicity after 4 hrs by rotarod test; type: organism-based; conditions: in vivo
[6] = test system: Mus musculus; assay: Anticonvulsant activity against maximal electroshock-induced seizures in ip dosed albino CF1 mouse assessed as minimum effective dose after 4 hrs; type: functional; conditions: read-out: MED
[7] = test system: Mus musculus; assay: Anticonvulsant activity in albino CF1 mouse assessed as protection against maximal electroshock-induced seizures at 3 mg/kg, ip after 0.5 hrs; type: functional, organism-based; design: dose 3 mg/kg
[8] = test system: Mus musculus; assay: Anticonvulsant activity against subcutaneous metrazole-induced seizures in ip dosed albino CF1 mouse assessed as minimum effective dose after 4 hrs; type: functional; conditions: albino CF1, 4 h, read-out: MED
[9] = test system: Mus musculus; assay: Anticonvulsant activity in albino CF1 mouse assessed as protection against subcutaneous metrazole-induced seizures at 300 mg/kg, ip after 4 hrs; type: functional, organism-based; design: dose 300 mg/kg
[10] = test system: Mus musculus; assay: Neurotoxicity in albino CF1 mouse assessed as minimal motor impairment at 3 mg/kg, ip after 0.5 hrs by rotarod test; type: toxicity, organism-based; design: dose 3 mg/kg, route intraperitoneal; conditions: in vivo
[11] = test system: Mus musculus; assay: Anticonvulsant activity in albino CF1 mouse assessed as protection against subcutaneous metrazole-induced seizures at 100 mg/kg, ip after 0.5 hrs; type: functional, organism-based; design: dose 100 mg/kg
[12] = test system: Mus musculus; assay: Anticonvulsant activity against subcutaneous metrazole-induced seizures in ip dosed albino CF1 mouse assessed as minimum effective dose after 0.5 hrs; type: functional; conditions: albino CF1, 0.5 h, read-out: MED
[13] = test system: Mus musculus; assay: Anticonvulsant activity in albino CF1 mouse assessed as protection against maximal electroshock-induced seizures at 30 mg/kg, ip after 4 hrs; type: functional, organism-based; design: dose 30 mg/kg
[14] = test system: Mus musculus; assay: Anticonvulsant activity in albino CF1 mouse assessed as protection against maximal electroshock-induced seizures at 300 mg/kg, ip after 0.5 hrs; type: functional, organism-based; design: dose 300 mg/kg
[15] = test system: Mus musculus; assay: Neurotoxicity in albino CF1 mouse assessed as minimal motor impairment at 100 mg/kg, ip after 4 hrs by rotarod test; type: toxicity, organism-based; design: dose 100 mg/kg, route intraperitoneal; conditions: in vivo
[16] = test system: Mus musculus; assay: Anticonvulsant activity in albino CF1 mouse assessed as protection against maximal electroshock-induced seizures at 300 mg/kg, ip after 4 hrs; type: functional, organism-based; design: dose 300 mg/kg
[17] = test system: Mus musculus; assay: Anticonvulsant activity in albino CF1 mouse assessed as protection against subcutaneous metrazole-induced seizures at 100 mg/kg, ip after 4 hrs; type: functional, organism-based; design: dose 100 mg/kg
[18] = test system: Mus musculus; assay: Neurotoxicity in albino CF1 mouse assessed as minimal motor impairment at 30 to 300 mg/kg, ip after 4 hrs by rotarod test; conditions: in vivo
[19] = test system: Mus musculus; assay: Neurotoxicity in albino CF1 mouse assessed as minimal motor impairment at 30 mg/kg, ip after 4 hrs by rotarod test; type: toxicity, organism-based; design: dose 30 mg/kg, route intraperitoneal; conditions: in vivo
[20] = test system: Mus musculus; assay: Anticonvulsant activity in albino CF1 mouse assessed as protection against maximal electroshock-induced seizures at 30 mg/kg, ip after 0.5 hrs; type: functional, organism-based; design: dose 30 mg/kg
[21] = test system: Mus musculus; assay: Neurotoxicity in ip dosed albino CF1 mouse assessed as minimum dose required to cause toxicity after 0.5 hrs by rotarod test; type: organism-based; conditions: in vivo
[22] = test system: Mus musculus; assay: Anticonvulsant activity in albino CF1 mouse assessed as protection against subcutaneous metrazole-induced seizures at 30 mg/kg, ip after 0.5 hrs; type: functional, organism-based; design: dose 30 mg/kg
[23] = test system: Mus musculus; assay: Anticonvulsant activity in albino CF1 mouse assessed as protection against subcutaneous metrazole-induced seizures at 300 mg/kg, ip after 0.5 hrs; type: functional, organism-based; design: dose 300 mg/kg
[24] = test system: Mus musculus; assay: Anticonvulsant activity in albino CF1 mouse assessed as protection against maximal electroshock-induced seizures at 10 mg/kg, ip after 0.5 hrs; type: functional, organism-based; design: dose 10 mg/kg
[25] = test system: Mus musculus; assay: Neurotoxicity in albino CF1 mouse assessed as minimal motor impairment at 10 mg/kg, ip after 0.5 hrs by rotarod test; type: toxicity, organism-based; design: dose 10 mg/kg, route intraperitoneal; conditions: in vivo
[26] = test system: Rattus norvegicus; assay: Anticonvulsant activity in albino Sprague-Dawley rat assessed as protection against maximal electroshock-induced seizures at 30 mg/kg, po after 1 hr; type: functional, organism-based; design: dose 30 mg/kg
[27] = test system: Mus musculus; assay: Neurotoxicity in albino CF1 mouse assessed as minimal motor impairment at 80 mg/kg, ip after 0.25 hrs by rotarod test; type: toxicity, organism-based; design: dose 80 mg/kg, route intraperitoneal; conditions: in vivo
[28] = test system: Mus musculus; assay: Anticonvulsant activity ip dosed albino CF1 mouse assessed as protection against subcutaneous metrazole-induced seizures after 0.25 hrs; type: functional; conditions: albino CF1, 0.25 h
[29] = test system: Rattus norvegicus; assay: Neurotoxicity in albino Sprague-Dawley rat assessed as minimal motor impairment at 30 mg/kg, po by rotarod test; type: toxicity, organism-based; design: dose 30 mg/kg, route oral; conditions: in vivo
[30] = test system: Rattus norvegicus; assay: Anticonvulsant activity in albino Sprague-Dawley rat assessed as protection against maximal electroshock-induced seizures at 30 mg/kg, po after 4 hrs; type: functional, organism-based; design: dose 30 mg/kg
[31] = test system: Mus musculus; assay: Neurotoxicity in albino CF1 mouse assessed as minimal motor impairment at 300 mg/kg, ip after 0.5 hrs by rotarod test; type: toxicity, organism-based; design: dose 300 mg/kg, route intraperitoneal; conditions: in vivo
[32] = test system: Rattus norvegicus; assay: Anticonvulsant activity in albino Sprague-Dawley rat assessed as protection against maximal electroshock-induced seizures at 30 mg/kg, po after 0.25 hrs; type: functional, organism-based; design: dose 30 mg/kg
[33] = test system: Mus musculus; assay: Anticonvulsant activity in albino CF1 mouse assessed as protection against maximal electroshock-induced seizures at 100 mg/kg, ip after 0.5 hrs; type: functional, organism-based; design: dose 100 mg/kg
[34] = test system: Mus musculus; assay: Anticonvulsant activity ip dosed albino CF1 mouse assessed as protection against maximal electroshock-induced seizures after 0.25 hrs; type: functional
[35] = test system: Mus musculus; assay: Neurotoxicity in ip dosed albino CF1 mouse assessed as minimal motor impairment after 0.25 hrs by rotarod test; type: toxicity, organism-based; conditions: in vivo
[36] = test system: Rattus norvegicus; assay: Anticonvulsant activity in albino Sprague-Dawley rat assessed as protection against maximal electroshock-induced seizures at 30 mg/kg, po after 2 hrs; type: functional, organism-based; design: dose 30 mg/kg
[37] = test system: Mus musculus; assay: Anticonvulsant activity in albino CF1 mouse assessed as protection against maximal electroshock-induced seizures at 100 mg/kg, ip after 4 hrs; type: functional, organism-based; design: dose 100 mg/kg
[38] = test system: Rattus norvegicus; assay: Anticonvulsant activity in albino Sprague-Dawley rat assessed as protection against maximal electroshock-induced seizures at 30 mg/kg, po after 0.5 hrs; type: functional, organism-based; design: dose 30 mg/kg
[39] = test system: Mus musculus; assay: Neurotoxicity in albino CF1 mouse assessed as minimal motor impairment at 200 mg/kg, ip after 0.25 hrs by rotarod test; type: toxicity, organism-based; design: dose 200 mg/kg, route intraperitoneal; conditions: in vivo

With `FC(F)(F)c1cccc(-c2c[nH]c(-c3ccccc3)n2)c1` the Activity [1] was “inactive”, the Activity [2] was “Non-toxic” and the Activity [3] was “Non-toxic”. The minimal effective dose [4] was greater than 30 mg/kg, the MED [5] was 100 mg/kg and the minimal effective dose [6] was 100 mg/kg. For the same molecule, the Activity [7] was “inactive”, the minimal effective dose [8] was greater than 300 mg/kg and the Activity [9] was “inactive”. For the same molecule, the Activity [10] was “Non-toxic”, the Activity [11] was “inactive” and the minimal effective dose [12] was greater than 300 mg/kg. The Activity [13] was “inactive”, the Activity [14] was “Active” and the Activity [15] was “Non-toxic”. The Activity [16] was “Active”, the Activity [17] was “inactive” and the Activity [18] was “Non-toxic”. For the same molecule, the Activity [19] was “Non-toxic”, the Activity [20] was “Active” and the MED [21] was 100 mg/kg. For the same molecule, the Activity [22] was “inactive”, the Activity [23] was “inactive” and the Activity [24] was “inactive”. For the same molecule, the Activity [25] was “Non-toxic”.

In the case of `c1ccc(-c2c[nH]c(-c3ccccc3)n2)cc1`, the Activity [1] was “inactive”, the Activity [2] was “Non-toxic” and the Activity [3] was “Non-toxic”. The Activity [26] was “inactive”, the minimal effective dose [4] was greater than 30 mg/kg and the Activity [27] was “Non-toxic”. The ED50 [28] was 161 mg/kg, the MED [5] was 100 mg/kg and the Activity [29] was “Non-toxic”. The Activity [30] was “inactive”, the Activity [31] was “Toxic” and the minimal effective dose [6] was 100 mg/kg. The Activity [32] was “inactive”, the minimal effective dose [8] was greater than 300 mg/kg and the Activity [9] was “inactive”. For the same molecule, the Activity [33] was “Active”, the ED50 [34] was 61.7 mg/kg and the Activity [11] was “inactive”. The minimal effective dose [12] was greater than 300 mg/kg, the TD50 [35] was 126.8 mg/kg and the Activity [13] was “inactive”. The Activity [36] was “inactive”, the Activity [14] was “Active” and the Activity [15] was “Non-toxic”. The Activity [16] was “Active”, the Activity [17] was “inactive” and the Activity [37] was “inactive”. For the same molecule, the Activity [38] was “inactive”, the Activity [19] was “Non-toxic” and the Activity [20] was “Active”. For the same molecule, the MED [21] was 100 mg/kg, the Activity [22] was “inactive” and the Activity [23] was “inactive”. For the same molecule, the Activity [39] was “Non-toxic”.

From ChEMBL document CHEMBL1275354, “Anticonvulsant activity of 2,4(1H)-diarylimidazoles in mice and rats acute seizure models” (Bioorg Med Chem, 2010)
